Data reported in patent US20070196395A1, “Immunomodulatory compounds that target and inhibit the py'binding site of tyrosene kinase p56 lck sh2 domain” (priority 2003, published 2007).

target: SH2 domain of p56 Lck (Homo sapiens, UniProt P06239); experiment: Inhibition of binding of the CD3ζ ITAM2 peptide to the SH2 domain of p56 Lck (affinity precipitation from Jurkat cell lysate, immunoblot); conditions: 100 μM; decreased blot intensity vs control
Sequence (P06239 whole entry, the tested form may be a part): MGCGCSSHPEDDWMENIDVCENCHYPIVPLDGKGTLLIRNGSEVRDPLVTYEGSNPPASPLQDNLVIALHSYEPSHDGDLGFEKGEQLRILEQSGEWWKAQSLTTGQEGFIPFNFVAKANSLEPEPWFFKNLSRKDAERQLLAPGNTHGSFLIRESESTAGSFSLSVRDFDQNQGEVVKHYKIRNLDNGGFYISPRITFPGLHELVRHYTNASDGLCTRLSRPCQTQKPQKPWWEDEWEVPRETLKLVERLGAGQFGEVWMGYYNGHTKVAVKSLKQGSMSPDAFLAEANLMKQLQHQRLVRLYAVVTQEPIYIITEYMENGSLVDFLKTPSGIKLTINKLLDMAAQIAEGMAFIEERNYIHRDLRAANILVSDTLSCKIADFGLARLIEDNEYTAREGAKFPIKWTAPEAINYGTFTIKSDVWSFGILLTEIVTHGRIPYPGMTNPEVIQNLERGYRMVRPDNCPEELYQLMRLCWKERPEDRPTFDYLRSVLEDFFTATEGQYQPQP

inhibition of p56 Lck SH2 domain association with phosphotyrosine-containing ITAM2 peptide	Compound
significant inhibitory activities	O=C(O)CC1S/C(=N\N=C2\CCCc3ccccc32)NC1=O (stereo not shown) [Compound 245]
significant inhibitory activities	O=C(O)CSc1cccnc1Sc1ccc(Cl)cc1 [Compound 262]
significant inhibitory activities	O=C(O)CSc1nsc(SCC(=O)O)n1 [Compound 232]

Compound	inhibition of p56 Lck SH2 domain association with phosphotyrosine-containing ITAM2 peptide
Nc1nnc(SCc2ccc(C(=O)O)cc2)s1 [Compound 239]	significant inhibitory activities

test system: lymphocytes from two different strains of mice (B6 black and balb/c); experiment: Mixed lymphocyte culture, 3H-thymidine uptake; type: cell-based, mouse; conditions: 100 μM to 1 μM; biphasic = inhibition at 100 μM, activation at 1 μM
Protocol: 100 mM solutions of compounds were prepared in DMSO.
Mixed lymphocyte culture assays were performed where lymphocytes from two different strains of mice with different histocompatibility antigens were mixed. Due to the difference in the histocompatibility antigens, resting T cells from both strains of mice will undergo blast transformation and propagate. As in any T cell activation process, the activation of Lck is essential. Therefore, the modulation of activation of Lck can be quantified as the downstream modulation in the levels of ^3H-TdR incorporation into DNA. 24 out of the 34 identified compounds were tested […], with 13 compounds showing inhibitory activity at a 100 μM concentration (FIG. 2). Thus, over 50% of the compounds identified by the in vitro assay also show activity in the cellular functional assay at the conditions described herein. These compounds represent the most promising leads for further development. […] Such effects may be associated with the regulatory mechanism of p56 Lck.
Another readout assay that is used to measure biological response is a mixed lymphocyte culture assay in which lymphocytes from two. different strains of mice with different histocompatibility antigens are mixed. Due to the difference in the histocompatibility antigens, resting T cells from both strains of mice undergo blast transformation and propagate. As in any T cell activation process, the activation of p56^lck is essential. Therefore, the modulation of p56^lck activity can be quantified as the downstream modulation in the levels of [^3H]-TdR incorporation into DNA.
Lymph node or splenic lymphocytes are harvested from two different allogeneic strains of mice. Cells (1×10^6) from each strain are mixed in 96 well culture plates containing 200 μl of culture medium in the presence or absence of the compound (0.1˜100 μM) and cultured for 72 h. Six hours before harvest, 0.5 μCi of [^3H]-TdR is added to each well. […] Filters are washed with PBS and then with ethanol and [^3H]-TdR incorporated into DNA is measured using scintillation counting. […]

Compound	activity profile in mixed lymphocyte culture assay across tested concentrations
N=C1S/C(=C/c2ccc(-c3cccc(C(=O)O)c3)o2)C(=O)N1c1ccc(F)cc1 [Compound 73]	inhibition
COc1ccc(OC)c(NC(=O)CCNC(=O)Cn2cnc3ccccc3c2=O)c1 [Compound 139]	Biphasic
Cc1ccc(NC(=O)c2cccc(NC(=O)c3ccccc3C(=O)O)c2)cc1C [Compound 99]	Biphasic
